# Tests used:
# ileal microbiota = experiment: Broiler feeding trial, ileal microbiota 16S rRNA sequencing; assay type: in vivo, chickens; conditions: Groups B and C; T2 and T3, significant for T2 only, P<0.0001
# Source text: Each group was sampled three times (i.e., S1=14 days, S2=28 days, S3=38/42 days) in specific days corresponding to when the feed will be changed along the feeding program.
# During each sampling (i.e., S1, S2 and S3) a total of 40 birds/group were humanely euthanized and 9 litter samples will be collected (i.e., 3 samples/group).
# 16S rRNA gene PCR amplification and sequencing. The V3-V4 hypervariable region of the 16S rRNA gene was PCR-amplified using 341F and 785R primers with Illumina overhang adaptors sequences. Amplicons purification was performed by using AMPure XP Beads magnetic beads (Beckman Coulter, Brea, CA). For the indexed library preparation, the Nextera XT DNA Library Prep Kit (Illumina, San Diego, CA) was used. A further magnetic beads purification step was performed and libraries quantified using the Qubit 3.0 fluorimeter (Invitrogen), then pooled at 4 nM. The library pool was denatured with NaOH 0.2 N and diluted to 6 μM. […]
# Bioinformatics and statistics. […] After chimera sequences removal, high-quality reads were filtered and binned into high-resolution operational taxonomic units (OTUs) according to the taxonomic threshold of 99% through an open-reference strategy performed with dada2 (Callahan et al, 2016). […] Alpha diversity was measured using Faith PD index and number of observed OTUs. […]
# caecal contents = experiment: In vitro gas production with caecal contents; assay type: cell-based, pigs
# Procedure: After 30 days of adaptation, animals were slaughtered. […] Regarding the caecal contents, one part was immediately sampled, dispensed in 20 ml tubes, frozen in liquid nitrogen and stored at −80° C. to use as frozen inoculum for in vitro gas production studies. The other part was directly used as fresh fermentation inoculum.
# The microbial fermentation pattern of caecal contents was studied in vitro by the gas production technique (Theodorou et al., 1994. Anim Feed Sci Technol 48:185-1-97). […] Firstly, triplicate glass bottles (110 mL total volume) for each treatment were filled with 56 mL incubation solution. Caecal contents of each of the 3 pigs for each treatment were mixed 2:1 with the incubation solution under CO2 atmosphere and homogenized for few minutes with waring blender (ceacal contents implies a 0.20 of total incubation solution). Then, 24 mL of the mixture were added to each bottle to complete the 80 mL total liquid volume. In addition, triplicate bottles without substrate were also included as blanks. Bottles were sealed under a CO2 stream and incubated at 39° C. for 12 h. Pressure was recorded every two hours throughout the incubation period, by means of an HD 2124.02 manometer fitted with a TP804 pressure gauge (Delta Ohm, Caselle di Selvazzano, Italy). Readings were converted into volume by a pre-established linear regression equation between the pressure recorded in the same bottles under the same conditions and known air volumes (n=103; R2=0.996). The gas volume recorded for each incubation time was expressed per unit of incubated organic matter (OM). Methane (CH4) concentration was measured on every 6 h interval. At 6 and 12 h incubation samples were collected and either acidified 1:1 with 0.1N HCl or added to 0.5 ml of a deproteinizing mixture of 0.5 M PO4H3 with 2 mg/ml 4-methyl valeric acid, that were stored at −20° C. for determination of ammonia and volatile fatty acid (VFA) concentration, respectively. Note that the procedure of the in vitro gas production was the same for both fresh inocula and frozen inocula, with the only difference that the frozen samples of caecal contents were previously maintained at 38° C. for 5 min for thawing.
# For gas production, results were analyzed for each incubation time as a split-plot design, considering the donor pig as a block, the contents (fresh vs. frozen) as the main plot and the treatment as the subplot. […] Differences were considered significant when P<0.05, and a trend for significance was considered when 0.05 ? P<0.10 and, when significant, differences were compared by the Tukey t test at P<0.05.
# [1] = system: fecal microbial community; experiment: Microbiome composition by shotgun sequencing: alpha diversity (first set); assay type: cell-based, human; conditions: after 24 h fermentation, vs corresponding control
Molecule,ileal species richness (observed OTUs) (ileal microbiota),"CH4 production as volume per unit of incubation substrate (caecal contents; 6 and 12 h incubation, ranking, no significant differences)","concentration of total VFA, molar proportions of VFA, ammonia concentration (caecal contents; among treatments)","CH4 proportion of total gas (caecal contents; up to 12 h incubation, numerical, no significant differences (P>0.05))","volume of gas (caecal contents; vs control, 4, 10 and 12 h incubation, P<0.05)",microbiome alpha diversity (Shannon diversity index) ([1]; 0.2× dose),microbiome alpha diversity (Shannon diversity index) ([1]; 1× dose),microbiome alpha diversity (Shannon diversity index) ([1]; 5× dose)
"Cc1cc2nc3c(=O)[nH]c(=O)nc-3n(C[C@H](O)[C@H](O)[C@H](O)CO)c2cc1C [Vitamin B2, riboflavin]",increase in terms of species richness,lowest accumulate CH4,No differences were recorded,the lowest,higher,,,
Vitamin E,,,,,,increase microbiome diversity,increase microbiome diversity,increase microbiome diversity

# Source: US12508280B2, “Formulations for improving gut health” (DSM IP ASSETS B.V., priority 2018, dated 2025)
